Patent publication US10053465B2 (Incyte Corporation, priority 2015, dated 2018)
Read-outs that look alike come from different tables or passages of the source.

Tests used:
c-Mer = c-Mer (Homo sapiens (Human), UniProt Q12866); settings: read-out: c-Mer IC50; HTRF, 60 min room temperature
Method: (§1) 0.1 ul test compounds dissolved in DMSO were transferred from compound plates to white 384-well assay plates (Greiner [sequence] plates). […] The plate was protected from light and incubated at room temperature for 60 min.

Tyro3 = Tyro3 (Homo sapiens (Human), UniProt Q06418); test: biochemical; settings: read-out: Tyro3IC50
Method: as §1

Phospho-Axl = Phospho-Axl (Homo sapiens (Human), UniProt P30530); test: biochemical;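 note: test system is recombinant Axl protein that was first autophosphorylated with ATP and MgCl2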
Phospho-Axl, sequence (P30530 26-894): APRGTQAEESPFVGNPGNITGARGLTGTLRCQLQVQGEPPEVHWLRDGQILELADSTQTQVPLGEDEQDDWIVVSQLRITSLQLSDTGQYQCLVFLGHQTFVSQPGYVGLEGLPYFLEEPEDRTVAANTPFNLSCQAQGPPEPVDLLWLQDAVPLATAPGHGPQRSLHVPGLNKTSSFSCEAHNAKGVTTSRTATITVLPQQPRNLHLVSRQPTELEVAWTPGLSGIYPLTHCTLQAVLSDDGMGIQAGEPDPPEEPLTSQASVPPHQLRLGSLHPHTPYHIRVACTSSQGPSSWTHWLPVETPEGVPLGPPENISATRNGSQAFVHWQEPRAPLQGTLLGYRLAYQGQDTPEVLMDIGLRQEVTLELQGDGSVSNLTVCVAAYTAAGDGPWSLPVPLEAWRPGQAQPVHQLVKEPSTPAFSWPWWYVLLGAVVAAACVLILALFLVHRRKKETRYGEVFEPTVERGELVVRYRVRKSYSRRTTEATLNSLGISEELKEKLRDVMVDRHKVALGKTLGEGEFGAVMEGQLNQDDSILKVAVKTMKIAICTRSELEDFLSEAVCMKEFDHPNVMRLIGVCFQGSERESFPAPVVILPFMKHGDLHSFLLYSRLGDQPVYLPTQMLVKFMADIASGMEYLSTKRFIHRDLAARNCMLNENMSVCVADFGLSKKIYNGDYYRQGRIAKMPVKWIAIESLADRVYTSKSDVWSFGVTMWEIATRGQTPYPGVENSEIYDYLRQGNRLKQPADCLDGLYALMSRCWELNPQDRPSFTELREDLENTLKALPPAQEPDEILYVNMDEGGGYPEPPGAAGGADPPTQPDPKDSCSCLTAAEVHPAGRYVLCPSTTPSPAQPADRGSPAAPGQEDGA
Method: Autophosphorylation of Axl was carried out by incubating the recombinant Axl protein (Life Technologies, PV4275) in buffer containing 50 mM Tris, pH7.5, 0.2 mg/ml Axl, 5 mM ATP, 20 mM MgCl2 and 2 mM DTT at room temperature for 1 hour.
as §1

c-Mer, sequence (Q12866 21-999): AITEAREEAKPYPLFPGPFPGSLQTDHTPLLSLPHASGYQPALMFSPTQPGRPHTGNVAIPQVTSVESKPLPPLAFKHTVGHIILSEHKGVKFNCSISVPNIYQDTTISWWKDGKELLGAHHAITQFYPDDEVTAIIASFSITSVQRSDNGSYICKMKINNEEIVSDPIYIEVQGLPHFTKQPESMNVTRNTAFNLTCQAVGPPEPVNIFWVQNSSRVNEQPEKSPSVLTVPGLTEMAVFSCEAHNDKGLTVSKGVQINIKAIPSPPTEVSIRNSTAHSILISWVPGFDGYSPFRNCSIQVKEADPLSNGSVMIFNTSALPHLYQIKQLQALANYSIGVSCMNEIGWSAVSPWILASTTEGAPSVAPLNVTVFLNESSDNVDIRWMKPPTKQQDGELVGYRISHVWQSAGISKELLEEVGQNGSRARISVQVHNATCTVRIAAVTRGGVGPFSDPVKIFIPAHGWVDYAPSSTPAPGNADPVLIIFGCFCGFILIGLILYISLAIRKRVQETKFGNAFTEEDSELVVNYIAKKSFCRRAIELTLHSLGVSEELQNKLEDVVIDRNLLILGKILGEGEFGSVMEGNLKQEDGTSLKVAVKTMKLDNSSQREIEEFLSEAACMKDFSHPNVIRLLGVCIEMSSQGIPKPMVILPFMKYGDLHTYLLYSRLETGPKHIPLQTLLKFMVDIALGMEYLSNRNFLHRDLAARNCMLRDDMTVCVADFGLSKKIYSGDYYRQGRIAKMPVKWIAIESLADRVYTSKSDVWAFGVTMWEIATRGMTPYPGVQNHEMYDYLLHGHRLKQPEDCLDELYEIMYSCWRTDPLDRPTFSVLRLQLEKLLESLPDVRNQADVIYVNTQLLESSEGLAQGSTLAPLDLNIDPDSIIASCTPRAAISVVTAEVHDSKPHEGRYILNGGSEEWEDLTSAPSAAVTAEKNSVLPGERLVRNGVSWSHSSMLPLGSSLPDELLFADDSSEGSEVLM
Tyro3, sequence (Q06418 41-890): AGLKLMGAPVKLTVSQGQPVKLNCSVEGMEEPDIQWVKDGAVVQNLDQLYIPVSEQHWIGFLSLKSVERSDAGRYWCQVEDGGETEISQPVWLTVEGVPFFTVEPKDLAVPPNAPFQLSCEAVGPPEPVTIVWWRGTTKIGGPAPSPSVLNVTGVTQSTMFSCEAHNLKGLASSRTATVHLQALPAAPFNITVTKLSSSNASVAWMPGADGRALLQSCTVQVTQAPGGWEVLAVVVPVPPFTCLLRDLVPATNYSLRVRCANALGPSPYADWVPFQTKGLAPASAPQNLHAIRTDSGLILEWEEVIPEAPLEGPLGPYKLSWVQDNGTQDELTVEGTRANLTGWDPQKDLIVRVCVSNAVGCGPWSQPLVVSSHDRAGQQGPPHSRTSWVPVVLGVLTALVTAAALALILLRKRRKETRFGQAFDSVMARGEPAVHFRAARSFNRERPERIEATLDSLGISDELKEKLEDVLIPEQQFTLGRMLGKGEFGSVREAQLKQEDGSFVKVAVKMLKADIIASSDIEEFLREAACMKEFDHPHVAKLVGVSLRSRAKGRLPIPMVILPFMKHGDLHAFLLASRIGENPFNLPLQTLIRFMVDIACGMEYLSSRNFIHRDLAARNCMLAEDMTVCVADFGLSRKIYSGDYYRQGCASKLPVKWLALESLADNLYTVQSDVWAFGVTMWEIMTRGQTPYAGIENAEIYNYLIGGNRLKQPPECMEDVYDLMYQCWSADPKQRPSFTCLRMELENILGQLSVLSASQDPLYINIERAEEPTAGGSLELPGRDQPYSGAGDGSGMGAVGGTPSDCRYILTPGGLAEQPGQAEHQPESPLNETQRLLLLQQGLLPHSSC

Row | Compound | IC50 (c-Mer) [nM] | IC50 (Tyro3) [nM] | IC50 (Phospho-Axl; HTRF, 60 min room temperature) [nM] | IC50 (Tyro3; HTRF, 60 min room temperature) [nM] | IC50 (Phospho-Axl) [nM]
1 | Cn1nccc1C(=O)NCC1(c2cccc(-c3ncnc4[nH]ccc34)c2)Cc2ccccc2C1 [Example 32, 1-Methyl-N-({2-[3-(7H-pyrrolo[2,3-d]pyrimidin-4-yl)phenyl]-2,3-dihydro-1H-inden-2-yl}methyl)-1H-pyrazole-5-carboxamide] | > 3000 | > 3000 | > 3000 |  | 
2 | O=C(NCC1(c2cccc(-c3ncnc4[nH]ccc34)c2)Cc2ccccc2C1)N1CCOCC1 [Example 35, N-({2-[3-(7H-Pyrrolo[2,3-d]pyrimidin-4-yl)phenyl]-2,3-dihydro-1H-inden-2-yl}methyl)morpholine-4-carboxamide] | > 3000 | > 3000 |  |  | 
3 | NCCC1(c2cccc(-c3ncnc4[nH]ccc34)c2)Cc2ccccc2C1 [Example 37, 2-{2-[3-(7H-Pyrrolo[2,3-d]pyrimidin-4-yl)phenyl]-2,3-dihydro-1H-inden-2-yl}ethanamine] |  | > 3000 | < 500 |  | 
4 | O=C(NCCC1(c2cccc(-c3ncnc4[nH]ccc34)c2)Cc2ccccc2C1)C1CC1 [Example 39, N-(2-{2-[3-(7H-Pyrrolo[2,3-d]pyrimidin-4-yl)phenyl]-2,3-dihydro-1H-inden-2-yl}ethyl)cyclopropanecarboxamide] |  | > 3000 | < 500 |  | 
5 | NCC1(c2cccc(-c3ncnc4[nH]ccc34)c2)Cc2ccc(CNC3CC3)cc2C1 (stereo not drawn) [Example 40, N-((2-(3-(7H-Pyrrolo[2,3-d]pyrimidin-4-yl)phenyl)-2-(aminomethyl)-2,3-dihydro-1H-inden-5-yl)methyl)cyclopropanamine] | > 3000 | > 3000 |  |  | 
6 | NCC1(c2cccc(-c3ncnc4[nH]ccc34)c2)Cc2ccc(CNC3CCC3)cc2C1 (stereo not drawn) [Example 41, N-((2-(3-(7H-Pyrrolo[2,3-d]pyrimidin-4-yl)phenyl)-2-(aminomethyl)-2,3-dihydro-1H-inden-5-yl)methyl)cyclobutanamine] | > 3000 | > 3000 |  |  | 
7 | NCC1(c2cccc(-c3ncnc4[nH]ccc34)c2)Cc2ccc(CN3CCC[C@@H]3C(N)=O)cc2C1 (stereo partly drawn) [Example 43, (2R)-1-((2-(3-(7H-Pyrrolo[2,3-d]pyrimidin-4-yl)phenyl)-2-(aminomethyl)-2,3-dihydro-1H-inden-5-yl)methyl)pyrrolidine-2-carboxamide] |  | > 3000 | > 3000 |  | 
8 | NCC1(c2cccc(-c3ncnc4[nH]ccc34)c2)Cc2ccc(CN3CC(O)C3)cc2C1 (stereo not drawn) [Example 48, 1-((2-(3-(7H-Pyrrolo[2,3-d]pyrimidin-4-yl)phenyl)-2-(aminomethyl)-2,3-dihydro-1H-inden-5-yl)methyl)azetidin-3-ol] | > 3000 |  | > 3000 | 1000 to 3000 | 
9 | N#Cc1ccc2c(c1)CC(CN)(c1cccc(-c3ncnc4[nH]ccc34)c1)C2 (stereo not drawn) [Example 49, 2-(Aminomethyl)-2-[3-(7H-pyrrolo[2,3-d]pyrimidin-4-yl)phenyl]indane-5-carbonitrile] | < 500 |  | < 500 | 1000 to 3000 | 
10 | CN(C)C1CCN(c2ccc3c(c2)CC(CN)(c2cccc(-c4ncnc5[nH]ccc45)c2)C3)C1 (stereo not drawn) [Example 52, 1-{2-(Aminomethyl)-2-[3-(7H-pyrrolo[2,3-d]pyrimidin-4-yl)phenyl]-2,3-dihydro-1H-inden-5-yl}-N,N-dimethylpyrrolidin-3-amine] |  | > 3000 | > 3000 |  | 
11 | CNC1CCN(c2ccc3c(c2)CC(CN)(c2cccc(-c4ncnc5[nH]ccc45)c2)C3)C1 (stereo not drawn) [Example 53, 1-{2-(Aminomethyl)-2-[3-(7H-pyrrolo[2,3-d]pyrimidin-4-yl)phenyl]-2,3-dihydro-1H-inden-5-yl}-N-methylpyrrolidin-3-amine] |  | > 3000 | > 3000 |  | 
12 | CC(O)C1CCN(c2ccc3c(c2)CC(CN)(c2cccc(-c4ncnc5[nH]ccc45)c2)C3)C1 (stereo not drawn) [Example 55, 1-(1-{2-(Aminomethyl)-2-[3-(7H-pyrrolo[2,3-d]pyrimidin-4-yl)phenyl]-2,3-dihydro-1H-inden-5-yl}pyrrolidin-3-yl)ethanol] |  | > 3000 | > 3000 |  | 
13 | NCC1(c2cccc(-c3ncnc4[nH]ccc34)c2)Cc2ccc(N3CC(F)C3)cc2C1 (stereo not drawn) [Example 56, 1-{5-(3-Fluoroazetidin-1-yl)-2-[3-(7H-pyrrolo[2,3-d]pyrimidin-4-yl)phenyl]-2,3-dihydro-1H-inden-2-yl}methanamine] | < 500 |  | < 500 | 1000 to 3000 | 
14 | NCC1(c2cccc(-c3ncnc4[nH]ccc34)c2)Cc2ccc(N3CCCC(O)C3)cc2C1 (stereo not drawn) [Example 58, 1-{2-(Aminomethyl)-2-[3-(7H-pyrrolo[2,3-d]pyrimidin-4-yl)phenyl]-2,3-dihydro-1H-inden-5-yl}piperidin-3-ol] | > 3000 | < 500 |  |  | 
15 | NCC1(c2cccc(-c3ncnc4[nH]ccc34)c2)Cc2ccc(-c3cccc(F)c3)cc2C1 (stereo not drawn) [Example 70, 1-{5-(3-Fluorophenyl)-2-[3-(7H-pyrrolo[2,3-d]pyrimidin-4-yl)phenyl]-2,3-dihydro-1H-inden-2-yl}methanamine] | > 3000 |  |  |  | 
16 | NCC1(c2cccc(-c3ncnc4[nH]ccc34)c2)Cc2ccc(-c3ccc(F)cc3)cc2C1 (stereo not drawn) [Example 71, 1-{5-(4-Fluorophenyl)-2-[3-(7H-pyrrolo[2,3-d]pyrimidin-4-yl)phenyl]-2,3-dihydro-1H-inden-2-yl}methanamine] | > 3000 |  |  |  | 
17 | CN(C)c1ccc(-c2ccc3c(c2)CC(CN)(c2cccc(-c4ncnc5[nH]ccc45)c2)C3)cc1 (stereo not drawn) [Example 72, 4-{2-(Aminomethyl)-2-[3-(7H-pyrrolo[2,3-d]pyrimidin-4-yl)phenyl]-2,3-dihydro-1H-inden-5-yl}-N,N-dimethylaniline] |  | < 500 | < 500 |  | 
18 | NCC1(c2cccc(-c3ncnc4[nH]ccc34)c2)Cc2ccc(-c3ccc(N4CCCC4)nc3)cc2C1 (stereo not drawn) [Example 75, 1-{5-(6-Pyrrolidin-1-ylpyridin-3-yl)-2-[3-(7H-pyrrolo[2,3-d]pyrimidin-4-yl)phenyl]-2,3-dihydro-1H-inden-2-yl}methanamine] |  | > 3000 | < 500 |  | 
19 | CCn1cnc(-c2ccc3c(c2)CC(CN)(c2cccc(-c4ncnc5[nH]ccc45)c2)C3)c1 (stereo not drawn) [Example 76, 1-{5-(1-Ethyl-1H-imidazol-4-yl)-2-[3-(7H-pyrrolo[2,3-d]pyrimidin-4-yl)phenyl]-2,3-dihydro-1H-inden-2-yl}methanamine] | < 500 |  |  | 500 to 1000 | < 500
20 | NCC1(c2cccc(-c3ncnc4[nH]ccc34)c2)Cc2ccc(-c3cccnc3)cc2C1 (stereo not drawn) [Example 77, (2-(3-(7H-Pyrrolo[2,3-d]pyrimidin-4-yl)phenyl)-5-(pyridin-3-yl)-2,3-dihydro-1H-inden-2-yl)methanamine] | > 3000 | < 500 |  |  | 
21 | NCC1(c2cccc(-c3ncnc4[nH]ccc34)c2)Cc2ccc(-c3ccncc3)cc2C1 (stereo not drawn) [Example 78, (2-(3-(7H-Pyrrolo[2,3-d]pyrimidin-4-yl)phenyl)-5-(pyridin-4-yl)-2,3-dihydro-1H-inden-2-yl)methanamine] | > 3000 |  |  |  | 
22 | NCC1(c2cccc(-c3ncnc4[nH]ccc34)c2)CCc2ccccc2C1 (stereo not drawn) [Example 99, 1-{2-[3-(7H-Pyrrolo[2,3-d]pyrimidin-4-yl)phenyl]-1,2,3,4-tetrahydronaphthalen-2-yl}methanamine] | < 500 |  |  |  | < 500
23 | NCC1(n2cc(-c3ncnc4[nH]ccc34)ccc2=O)Cc2ccccc2C1 [Example 100, 1-[2-(Aminomethyl)-2,3-dihydro-1H-inden-2-yl]-5-(7H-pyrrolo[2,3-d]pyrimidin-4-yl)pyridin-2(1H)-one] | < 500 |  | < 500 |  | 
